Measurements taken from PubChem BioAssay (NCI).
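Assay format: 96-well plates, 48-hour exposure. Here, GI50 denotes the concentration required for 50% inhibition of growth. At the TGI there is no net growth.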

Legend:
Assay in all cases: growth of human tumour cells (NCI), 48 h
786-0 renal = test system: 786-0 renal
A498 renal = test system: A498 renal
A549 NSCLC = test system: A549 NSCLC
ACHN renal = test system: ACHN renal
BT-549 breast = test system: BT-549 breast
CAKI-1 renal = test system: CAKI-1 renal
CCRF-CEM leukemia = test system: CCRF-CEM leukemia
COLO 205 colon = test system: COLO 205 colon
DU-145 prostate = test system: DU-145 prostate
EKVX NSCLC = test system: EKVX NSCLC
HCC-2998 colon = test system: HCC-2998 colon
HCT-116 colon = test system: HCT-116 colon
HCT-15 colon = test system: HCT-15 colon
HL-60(TB) leukemia = test system: HL-60(TB) leukemia
HOP-62 NSCLC = test system: HOP-62 NSCLC
HOP-92 NSCLC = test system: HOP-92 NSCLC
HT29 colon = test system: HT29 colon
IGROV1 ovarian = test system: IGROV1 ovarian
K-562 leukemia = test system: K-562 leukemia
KM12 colon = test system: KM12 colon
LOX IMVI melanoma = test system: LOX IMVI melanoma
M14 melanoma = test system: M14 melanoma
MALME-3M melanoma = test system: MALME-3M melanoma
MDA-MB-231 breast = test system: MDA-MB-231 breast
MDA-MB-435 = test system: MDA-MB-435
MOLT-4 leukemia = test system: MOLT-4 leukemia
NCI-H23 lung = test system: NCI-H23 lung
NCI-H460 lung = test system: NCI-H460 lung
NCI-H522 lung = test system: NCI-H522 lung
NCI/ADR-RES ovarian = test system: NCI/ADR-RES ovarian
OVCAR-4 ovarian = test system: OVCAR-4 ovarian
OVCAR-5 ovarian = test system: OVCAR-5 ovarian
OVCAR-8 ovarian = test system: OVCAR-8 ovarian
PC-3 prostate = test system: PC-3 prostate
RPMI-8226 leukemia = test system: RPMI-8226 leukemia
RXF 393 renal = test system: RXF 393 renal
SF-268 CNS = test system: SF-268 CNS
SF-295 CNS = test system: SF-295 CNS
SF-539 CNS = test system: SF-539 CNS
SK-MEL-2 melanoma = test system: SK-MEL-2 melanoma
SK-MEL-28 melanoma = test system: SK-MEL-28 melanoma
SK-MEL-5 melanoma = test system: SK-MEL-5 melanoma
SK-OV-3 ovarian = test system: SK-OV-3 ovarian
SN12C renal = test system: SN12C renal
SNB-19 CNS = test system: SNB-19 CNS
SNB-75 CNS = test system: SNB-75 CNS
SR leukemia = test system: SR leukemia
SW-620 colon = test system: SW-620 colon
T-47D breast = test system: T-47D breast
TK-10 renal = test system: TK-10 renal
U251 CNS = test system: U251 CNS
UACC-257 melanoma = test system: UACC-257 melanoma
UACC-62 melanoma = test system: UACC-62 melanoma
UO-31 renal = test system: UO-31 renal

## CCc1cc(OC(=O)N2CCC(N3CCCCC3)CC2)ccc1Nc1cc(-c2ccc(-n3cccn3)cc2)[nH]n1
786-0 renal
  GI50: 1550 nM
  TGI: 2980 nM
A498 renal
  GI50: 1400 nM
  TGI: 2810 nM
A549 NSCLC
  GI50: 1210 nM
  TGI: 2660 nM
ACHN renal
  GI50: 1720 nM
  TGI: 3100 nM
BT-549 breast
  GI50: 1580 nM
  TGI: 2950 nM
CAKI-1 renal
  GI50: 1550 nM
  TGI: 3450 nM
CCRF-CEM leukemia
  GI50: 2950 nM
  TGI: 21600 nM
COLO 205 colon
  GI50: 1790 nM
  TGI: 3270 nM
DU-145 prostate
  GI50: 1910 nM
  TGI: 4170 nM
EKVX NSCLC
  GI50: 2160 nM
  TGI: 5860 nM
HCC-2998 colon
  GI50: 1750 nM
  TGI: 3330 nM
HCT-116 colon
  GI50: 1450 nM
  TGI: 2830 nM
HCT-15 colon
  GI50: 1360 nM
  TGI: 2830 nM
HL-60(TB) leukemia
  GI50: 1710 nM
  TGI: 4520 nM
HOP-62 NSCLC
  GI50: 1840 nM
  TGI: 3700 nM
HOP-92 NSCLC
  GI50: 1450 nM
  TGI: 3230 nM
HT29 colon
  GI50: 1270 nM
  TGI: 2740 nM
IGROV1 ovarian
  GI50: 1930 nM
  TGI: 4040 nM
K-562 leukemia
  GI50: 1130 nM
  TGI: 5070 nM
KM12 colon
  GI50: 2110 nM
  TGI: 4290 nM
LOX IMVI melanoma
  GI50: 1660 nM
  TGI: 3170 nM
M14 melanoma
  GI50: 1830 nM
  TGI: 3300 nM
MALME-3M melanoma
  GI50: 1670 nM
  TGI: 3210 nM
MDA-MB-231 breast
  GI50: 1900 nM
  TGI: 3570 nM
MDA-MB-435
  GI50: 1770 nM
  TGI: 3340 nM
MOLT-4 leukemia
  GI50: 2160 nM
  TGI: 11000 nM
NCI-H23 lung
  GI50: 1820 nM
  TGI: 3900 nM
NCI-H460 lung
  GI50: 1580 nM
  TGI: 3160 nM
NCI-H522 lung
  GI50: 1850 nM
  TGI: 3510 nM
NCI/ADR-RES ovarian
  GI50: 2940 nM
  TGI: 9890 nM
OVCAR-4 ovarian
  GI50: 2220 nM
  TGI: 5340 nM
OVCAR-5 ovarian
  GI50: 1830 nM
  TGI: 4020 nM
OVCAR-8 ovarian
  GI50: 1800 nM
  TGI: 3830 nM
PC-3 prostate
  GI50: 1730 nM
  TGI: 3650 nM
RPMI-8226 leukemia
  GI50: 2030 nM
  TGI: 5620 nM
RXF 393 renal
  GI50: 1450 nM
  TGI: 2890 nM
SF-268 CNS
  GI50: 1820 nM
  TGI: 3730 nM
SF-295 CNS
  GI50: 1660 nM
  TGI: 3200 nM
SF-539 CNS
  GI50: 1730 nM
  TGI: 3270 nM
SK-MEL-2 melanoma
  GI50: 1830 nM
  TGI: 3330 nM
SK-MEL-28 melanoma
  GI50: 1730 nM
  TGI: 3270 nM
SK-MEL-5 melanoma
  GI50: 1720 nM
  TGI: 3120 nM
SK-OV-3 ovarian
  GI50: 1930 nM
  TGI: 3470 nM
SN12C renal
  GI50: 1840 nM
  TGI: 3710 nM
SNB-19 CNS
  GI50: 1950 nM
  TGI: 4110 nM
SNB-75 CNS
  GI50: 1660 nM
  TGI: 4220 nM
SR leukemia
  GI50: 1490 nM
  TGI: 4600 nM
SW-620 colon
  GI50: 1860 nM
  TGI: 3510 nM
T-47D breast
  GI50: 1610 nM
  TGI: 3510 nM
TK-10 renal
  GI50: 1410 nM
  TGI: 3450 nM
U251 CNS
  GI50: 1580 nM
  TGI: 2990 nM
UACC-257 melanoma
  GI50: 1820 nM
  TGI: 3440 nM
UACC-62 melanoma
  GI50: 1920 nM
  TGI: 3960 nM
UO-31 renal
  GI50: 1560 nM
  TGI: 3600 nM
